Measured values published in paper PMC8910004, “Hexokinase 2 Inhibition and Biological Effects of BNBZ and Its Derivatives: The Influence of the Number and Arrangement of Hydroxyl Groups” (International Journal of Molecular Sciences, 2022).

Experiments:
[1] = target: T1, Hexokinase 2 (Homo sapiens, UniProt P52789); assay: in vitro HK2 Inhibitor Screening Kit (G6PDH-coupled colorimetric), […], positive control; assay type: biochemical
T1 construct: gene HK2
T1 sequence (P52789 1-917): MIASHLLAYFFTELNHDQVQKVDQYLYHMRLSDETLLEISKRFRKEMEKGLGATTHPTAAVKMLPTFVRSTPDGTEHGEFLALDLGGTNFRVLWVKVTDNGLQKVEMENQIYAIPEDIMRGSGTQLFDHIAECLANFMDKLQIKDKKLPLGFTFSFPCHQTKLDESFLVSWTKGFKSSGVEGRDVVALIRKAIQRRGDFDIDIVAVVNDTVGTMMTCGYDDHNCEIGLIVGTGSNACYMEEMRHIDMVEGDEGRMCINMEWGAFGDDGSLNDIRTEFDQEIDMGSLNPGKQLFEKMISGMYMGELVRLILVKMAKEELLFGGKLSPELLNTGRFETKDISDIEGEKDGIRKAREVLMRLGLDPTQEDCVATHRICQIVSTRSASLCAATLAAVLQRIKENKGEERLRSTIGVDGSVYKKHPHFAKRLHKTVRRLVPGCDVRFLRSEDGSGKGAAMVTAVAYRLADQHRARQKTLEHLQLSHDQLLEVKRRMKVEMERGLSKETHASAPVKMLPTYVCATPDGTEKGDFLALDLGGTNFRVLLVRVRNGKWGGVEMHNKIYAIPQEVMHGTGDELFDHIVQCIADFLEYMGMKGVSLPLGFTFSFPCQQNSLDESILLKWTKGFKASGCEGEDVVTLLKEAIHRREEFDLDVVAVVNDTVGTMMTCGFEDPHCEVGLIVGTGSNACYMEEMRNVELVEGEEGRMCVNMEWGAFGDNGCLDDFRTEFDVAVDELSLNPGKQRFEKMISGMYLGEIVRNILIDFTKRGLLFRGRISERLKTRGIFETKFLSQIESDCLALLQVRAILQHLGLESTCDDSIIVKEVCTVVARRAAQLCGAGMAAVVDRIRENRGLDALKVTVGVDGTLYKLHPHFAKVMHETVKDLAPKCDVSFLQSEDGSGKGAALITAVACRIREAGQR

[2] = target: T2, Hexokinase 2 (H6-hHK2) (Homo sapiens, UniProt P52789); assay: microscale thermophoresis (RED-Tris-NTA labelled His6-HK2); also inhibits isolated HK2 in kit assay; assay type: binding
T2 construct: gene HK2; N-terminal His6-tagged human HK2, aa 17-917
T2 sequence (P52789 17-917): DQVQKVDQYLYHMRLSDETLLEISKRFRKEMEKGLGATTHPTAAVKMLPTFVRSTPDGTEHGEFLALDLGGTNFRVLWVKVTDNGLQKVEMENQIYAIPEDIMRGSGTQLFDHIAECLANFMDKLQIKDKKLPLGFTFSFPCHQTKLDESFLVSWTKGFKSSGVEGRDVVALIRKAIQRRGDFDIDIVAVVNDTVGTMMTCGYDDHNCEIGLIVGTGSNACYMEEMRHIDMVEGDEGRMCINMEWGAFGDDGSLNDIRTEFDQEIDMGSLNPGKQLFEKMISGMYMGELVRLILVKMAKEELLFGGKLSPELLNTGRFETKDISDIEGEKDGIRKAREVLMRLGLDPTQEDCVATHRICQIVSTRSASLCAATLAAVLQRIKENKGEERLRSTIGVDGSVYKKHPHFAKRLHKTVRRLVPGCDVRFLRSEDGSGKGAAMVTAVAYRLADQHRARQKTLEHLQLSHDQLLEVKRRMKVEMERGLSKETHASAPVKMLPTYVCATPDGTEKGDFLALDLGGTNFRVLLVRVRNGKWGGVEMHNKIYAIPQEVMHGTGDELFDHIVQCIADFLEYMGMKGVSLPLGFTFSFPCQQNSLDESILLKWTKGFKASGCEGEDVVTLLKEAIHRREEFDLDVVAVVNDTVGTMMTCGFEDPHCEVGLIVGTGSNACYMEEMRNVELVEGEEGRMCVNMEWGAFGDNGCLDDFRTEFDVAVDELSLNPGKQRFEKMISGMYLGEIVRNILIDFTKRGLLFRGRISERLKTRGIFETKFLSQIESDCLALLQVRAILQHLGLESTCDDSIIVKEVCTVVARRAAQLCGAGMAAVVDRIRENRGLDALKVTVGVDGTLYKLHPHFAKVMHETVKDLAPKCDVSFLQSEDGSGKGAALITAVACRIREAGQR

[3] = target: T2, Hexokinase 2 (H6-hHK2); assay: microscale thermophoresis (RED-Tris-NTA labelled His6-HK2); assay type: binding

SMILES	activity at 5 µM [1] [%]	also measured
OC[C@H]1OC(O)C[C@@H](O)[C@@H]1O (stereo partly shown) [2DG, 2-deoxyglucose]	9.9 ± 0.5	–
O=C(N/N=C/c1ccc(O)c(O)c1O)c1ccc([N+](=O)[O-])cc1 [2a, (E)-N′-(2,3,4-trihydroxybenzylidene)-4-nitrobenzohydrazide]	–	Kd [2]: 8.83 to 11 µM
O=C(N/N=C/c1ccc(O)cc1O)c1ccc([N+](=O)[O-])cc1 [2b, (E)-N′-(2,4-dihydroxybenzylidene)-4-nitrobenzohydrazide]	–	Kd [3]: 58.9 µM
O=C(O)C(=O)CBr [3BP, 3-bromopyruvate]	2.5 ± 0.4	–
